Columns and labels:
Format in all cases: functional
[1] = test system: SK-MEL-5; experiment: Cytotoxicity against human SK-MEL-5 cells
[2] = test system: MDA-MB-435; experiment: Cytotoxicity against human MDA-MB-435 cells
[3] = test system: MCF7; experiment: Cytotoxicity against human MCF7 cells
[4] = test system: SR; experiment: Cytotoxicity against human SR cells

SMILES | GI50 [1] [µM] | GI50 [2] [µM] | GI50 [3] [µM] | GI50 [4] [µM]
CC/C=C\C=C/C(=O)N/C=C/C[C@H]1C[C@@H](O)[C@@H](C)C/C=C/Cc2cccc(O)c2C(=O)O1 [SALICYLIHALAMIDE A] | 0.007 | – | – | –
CC/C=C\C=C/C(=O)N/C=C/CC1Cc2cccc(O)c2C(=O)O1 (racemic) | 27 | 11 | 49 | 2
